Read-outs that look alike come from different tables or passages of the source. Marks after values point to notes of the source that are not given here.
Tests used:
RANTES = RANTES release by IC-21 macrophage cell line; type: cell-based, murine; details: data not shown
Method: (§1) Levels of TNF, IL-1b, RANTES, and macrophage inflammatory protein (MIP)-1α were determined using sandwich ELISA from R&D Systems (Minneapolis, Minn.).
(§2) These cells display many typical features of the macrophage phenotype and are therefore a suitable model for studying cytoline and chemokine release during inflammation (16). The cells were maintained in continous culture using RPMI-1640 supplemented with 10% FCS, L-glutamine, and gentamycin. When the cells had grown to about 70% confluency, they were seeded into a 24-well-plate (Nunc) at a concentration of 1×10^5 per well and incubated at 37° C. in 5% CO2 for 24 h. […] After 24 h of incubation, the cells were washed once with PBS, and reincubated with medium containing different concentrations (1, 10, 100, 1000 ng/ml) of LPS (Difco) and IFN-γ (10, 50, 100 u/nml). The interferon-γ was purified from the supernatants from Chinese hanater ovary (CHO) cells transfected with the murine IFN-γ gene (hybridoma kindly provided by Dr. Morris, Department of Biological Sciences, University of Warwick, Coventry, UK). After 2 and 24 h of incubation the supernatants were collected and stored at −20° C. until analysis.

MIP-1α [1] = experiment: Serum MIP-1α in CII immunized mice (ELISA); type: in vivo, B10.QxDBA/1 female mice; details: serum at end of experiment, mean ± SEM
Method: as §1

spleen mononuclear cells [2] = type: cell-based, NMRI mice; details: spleen cells from non-infected mice treated once a day for three days vs controls; FIG. 3
[3] = system: peripheral blood leukocytes; experiment: Hematological analyses during S. aureus infection; type: in vivo, NMRI mice
Method: (§3) Hematological Analyses Mice were bled from the tail into heparinized tubes on days −3, −1, 3, and 6-7 after bacterial inoculation. The leukocytes were counted in a hemacytometer (Toa Medical Electronics, Kobe, Japan). Fifty microliters of the heparinized blood was analysed in a FACScan cytometer (Becton Dickinson, San Jose, Calif.) to determine the percentages of lymphocytes, granulocytes, and monocytes, respectively. The absolute numbers of different leukocyte subsets were then calculated from the total leukocyte counts.

peripheral leukocytes = experiment: Peripheral blood cell count in naive mice; type: in vivo; details: 12.5 mg/kg 4 days per week for 4 weeks, 3 days after last treatment
Method: as §3, with “Mice” for “Hematological Analyses Mice”, “at different time-points.” for “on days −3, −1, 3, and 6-7 after bacterial inoculation.”, “analyzed” for “analysed”, “monocytes.” for “monocytes, respectively.”

TNF = type: cell-based, NMRI mice; details: 24 h supernatant, mean ± SEM
Method: Spleens were obtained from healthy NMRI mice. […] The cells (2×10^61/Ml) were cultured in Iscove's complete medium (10% FCS, 5×10^−5 M 2-mercaptoethanol, 2 mM L-glutamine, and 50 μg/ml gentamicin). […] To determine the proliferative response, the cells were cultured in 96-well plates (Nunc) for 3 days. The cultures were pulsed with 1 μCi of (^3H)TdR (Amersham, Bucks, UK) 12 h before harvest and calculation of TdR uptake in a beta counter. The levels of TNF.- were determined using sandwich enzyme-linked immunosorbent assays (ELISA) kit from R&D Systems Minneapolis, Minn.).

spleen mononuclear cells [4] = type: cell-based; details: spleen cells of mice given 12.5 mg/kg 4 days a week for 4 weeks
IL-6 = experiment: Serum IL-6 in S. aureus infected mice (B9 bioassay); type: in vivo, NMRI mice; details: six days after 1.4×10^7 CFU S. aureus; 12.5 mg/kg from three days prior; mean ± SEM, n = 6
Method: The cell line B 13,29, subclone B9, which is dependent on IL-6 for its growth, was used for IL-6 determinations. The cells were seeded into microtiter plates at a concentration of 5000 cells/well and samples in different dilutions were added. One μCi of (3H) TdR (Amersham) was added after 68 h of culture, and the cells were harvested 4 h later. The results were compared with recombinant IL-6 standard (Genzyme, Cambridge, Mass.). The B9 cells were previously shown not to react with several recombinant cytolines including IL.-1, IL.-, L-2, IL-3, IL-5, granulocyte/macrophage CS17, TNF.-, and IFN.-, There was only a weak reactivity with IL-4 [14].

TNF-α = experiment: Serum TNF-α in S. aureus infected mice (ELISA); type: in vivo, NMRI mice; details: six days after 1.4×10^7 CFU S. aureus; 12.5 mg/kg from three days prior; mean ± SEM, n = 6
Method: The levels of TNF.- were determined using sandwich enzyme-linked immunosorbent assays (ELISA) kit from R&D Systems Minneapolis, Minn.).

MIP-1α [5] = experiment: MIP-1α release by IC-21 macrophage cell line; type: cell-based, murine
Method: as §1, §2

COc1cc([C@@H]2c3cc4c(cc3[C@@H](O[C@@H]3O[C@@H]5CO[C@@H](C)O[C@H]5[C@H](O)[C@H]3O)[C@H]3COC(=O)[C@H]23)OCO4)cc(OC)c1O [Etoposide]
RANTES release (RANTES): upregulated
MIP-1a (MIP-1α [1]; Etoposide-pretreated): 3.0 ± 0.5^c pg/ml
MIP-1a (MIP-1α [1]; Etoposide-treated (from day 40)): 2.9 ± 0.3^c pg/ml
Proliferative response, Con A stimulated (spleen mononuclear cells [2]): not when stimulated with Con A
Proliferative response, TSST-1 stimulated (spleen mononuclear cells [2]): lower proliferative response
Numbers of lymphocytes ([3]; day prior to bacterial inoculation): 5.6±0.4 ×10^6/ml
Numbers of granulocytes ([3]; day −1): 1.3±0.2 ×10^6/ml
Levels of circulating monocytes ([3]; etoposide from three days prior to S. aureus inoculation, FIG. 4): significantly decreased
Numbers of lymphocytes ([3]; seven days after infection): 0.8±0.2 ×10^6/ml
Numbers of granulocytes ([3]; seven days after the inoculation): 1.6±0.4 ×10^6/ml
Numbers of granulocytes (peripheral leukocytes): 1.1±0.4 ×10^4/ml
Numbers of monocytes (peripheral leukocytes): 71±28 ×10^4/ml
TNF, ConA stimulated (TNF; etoposide 1 μM, four mice): 167 ± 29 pg/mL
TNF, TSST-1 stimulated (TNF; etoposide 1 μM, four mice): 64 ± 20 pg/mL
TNF, ConA stimulated (TNF; etoposide 10 μM): 66 ± 19^b pg/ml
TNF, TSST-1 stimulated (TNF; etoposide 10 μM): 38 ± 8^b pg/ml
TNF, ConA stimulated (TNF; etoposide 100 μM): 10 ± 1^b pg/ml
TNF, TSST-1 stimulated (TNF; etoposide 100 μM): 16 ± 3^b pg/ml
Counts per minute (CPM), TSST-1 (spleen mononuclear cells [4]; first value of merged cell): 1117 ± 26 CPM
Counts per minute (CPM), Con A (spleen mononuclear cells [4]; mean ± SEM, 4 mice): 2183 ± 214^a) CPM
Counts per minute (CPM), 0 (unstimulated) (spleen mononuclear cells [4]; second value of merged cell): 156 ± 9 CPM
Serum IL-6 (IL-6): 11.927 ± 4.610^b pg/ml
Serum TNF-α (TNF-α): 30 ± 12 pg/mL
Levels of MIP-1α in supernatants (MIP-1α [5]; etoposide 0.01 μM 24 h, then IFN-γ 0 u/ml 24 h): 5700 pg/mL
Levels of MIP-1α in supernatants (MIP-1α [5]; etoposide 0.01 μM 24 h, then IFN-γ 10 u/ml 24 h): 4200 pg/mL
Levels of MIP-1α in supernatants (MIP-1α [5]; etoposide 0.01 μM 24 h, then IFN-γ 50 u/ml 24 h): 1075 pg/mL
Levels of MIP-1α in supernatants (MIP-1α [5]; etoposide 0.01 μM 24 h, then IFN-γ 100 u/ml 24 h): 800 pg/mL
Levels of MIP-1α in supernatants (MIP-1α [5]; etoposide 0.1 μM 24 h, then IFN-γ 0 u/ml 24 h): 3400 pg/mL
Levels of MIP-1α in supernatants (MIP-1α [5]; etoposide 0.1 μM 24 h, then IFN-γ 10 u/ml 24 h): 1950 pg/mL
Levels of MIP-1α in supernatants (MIP-1α [5]; etoposide 0.1 μM 24 h, then IFN-γ 50 u/ml 24 h): 900 pg/mL
Levels of MIP-1α in supernatants (MIP-1α [5]; etoposide 0.1 μM 24 h, then IFN-γ 100 u/ml 24 h): 488 pg/mL

Reference: US20030148963A1 (priority 2000, published 2003)
